77 sequences from the supplement of paper PMC11208160 can be followed below.

This data set in a line: recombinant barcode read abundance after kanamycin selection (control-corrected) (log10(CPM+1)); higher = more efficient recombination; sequences stand for … in AGTGCAGAGAAAATCGGCCAGTTTTCTCTGCCTGCAGTCCGCATGCCGT…AGATTTATGCAGCGGACTGCCTTTCTCCCAAAGTGATAAACCGGACAGTATCATGGACCGGTTTTCCCGGTAATCCGTATTTGCAAGGTTGGTTTCACT; site = the 11-nt target. Summed up:
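Each value is log10(CPM+1). It describes recombination efficiency, taken as averaged, control-corrected counts per million of barcodes at recombinant junctions. The pooled E. coli library paired targets with IS621 bridge RNA target-binding loops, was co-electroporated with a donor plasmid, and was plated twice on chloramphenicol/ampicillin LB agar (control) and twice on chloramphenicol/ampicillin/kanamycin containing 0.1 mM IPTG.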
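Further: IS621 recombinase and bridge RNA in Escherichia coli cells.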

For “TCGCACTCTTGGGTTCTAACCTGTTGCCT (site TCTCACTCTAG)”, the “recombinant barcode read abundance (log10)” value stood at 0.117.
For “TCGCACTCTTGGGTTCTAACCTGTTGCTA (site TCGCACACTTA)”, the “recombinant barcode read abundance (log10)” value was 0.262.
On to “TCGCACTCTTGGGTTCTAACCTGTTGCTA (site TCGCACTCTTA)”, for which the “recombinant barcode read abundance (log10)” value was found to be 0.911.
The result for “TCGCCTACTTGGGTTCTAACCTGTTGCCT (site TCGCCTACTAG)” reads 0.049; that for “TCGCCTACTTGGGTTCTAACCTGTTGCCT (site TCGCCTGCTAG)”, 0.396.
Consider “TCGCCTTCTTGGGTTCTAACCTGTTGCCT (site TAGCCTTCTAG)”, for which the “recombinant barcode read abundance (log10)” value is 0.482.
In the case of “TCGCCTTCTTGGGTTCTAACCTGTTGCCT (site TCGCCTTCTAG)”, the “recombinant barcode read abundance (log10)” value came out at 0.364.
As to “TCGCCTTCTTGGGTTCTAACCTGTTGCCT (site TGGCCTTCTAG)”, the “recombinant barcode read abundance (log10)” value came out at 0.654.
With “TCGCCTTCTTGGGTTCTAACCTGTTGCCT (site TTGCCTTCTAG)”, the “recombinant barcode read abundance (log10)” value turned out to be 0.0934.
The result for “TCGCGGCCTTGGGTTCTAACCTGTTGCCT (site ACGCGGCCTAG)” reads 0.153; that for “TCGCGGCCTTGGGTTCTAACCTGTTGCCT (site CCGCGGCCTAG)”, 0.105; that for “TCGCGGCCTTGGGTTCTAACCTGTTGCCT (site GCGCGGCCTAG)”, 0.1.
In the case of “TCGCGGCCTTGGGTTCTAACCTGTTGCCT (site TCGCGGCCTAG)”, the “recombinant barcode read abundance (log10)” value is 0.0408.
The value for “TCGCGTCCTTGGGTTCTAACCTGTTGCCG (site ACGCGTCCTCG)” was 0.116.
The value for “TCGCGTCCTTGGGTTCTAACCTGTTGCCG (site TCGCGTCCTCG)” was 1.41; that for “TCGCTAGCTTGGGTTCTAACCTGTTGCGG (site CCGCTACCTCC)” was 1.83; that for “TCGCTAGCTTGGGTTCTAACCTGTTGCGG (site TCGCTAGCTCC)” was 0.657.
As for “TCGGACACTTGGGTTCTAACCTGTTGCCA (site TCGGACACTTG)”, the “recombinant barcode read abundance (log10)” value amounted to 1.89.
Turning to “TCGGACACTTGGGTTCTAACCTGTTGCCA (site TGGGACTCTTG)”, the “recombinant barcode read abundance (log10)” value is 0.0505.
As for “TCGGAGGCTTGGGTTCTAACCTGTTGCTG (site TCAGAGGCTCA)”, the “recombinant barcode read abundance (log10)” value was found to be 0.774.
Take “TCGGAGGCTTGGGTTCTAACCTGTTGCTG (site TCCGAGGCTCA)”: the “recombinant barcode read abundance (log10)” value is 0.325.
On to “TCGGAGGCTTGGGTTCTAACCTGTTGCTG (site TCGGAGGCTCA)”, for which the “recombinant barcode read abundance (log10)” value was 0.442.
With “TCGGAGGCTTGGGTTCTAACCTGTTGCTG (site TCTGAGGCTCA)”, the “recombinant barcode read abundance (log10)” value is 0.374.
With “TCGGAGTCTTGGGTTCTAACCTGTTGCCT (site TCGGAGTCTAA)”, the “recombinant barcode read abundance (log10)” value came to 0.128.
With “TCGGAGTCTTGGGTTCTAACCTGTTGCCT (site TCGGAGTCTAC)”, the “recombinant barcode read abundance (log10)” value was determined as 1.06.
The value for “TCGGAGTCTTGGGTTCTAACCTGTTGCCT (site TCGGAGTCTAG)” was 2.23; that for “TCGGAGTCTTGGGTTCTAACCTGTTGCCT (site TCGGAGTCTAT)” was 0.503.
As to “TCGGATACTTGGGTTCTAACCTGTTGCCA (site TAGGACACTTG)”, the “recombinant barcode read abundance (log10)” value was 0.0618.
For “TCGGATACTTGGGTTCTAACCTGTTGCCA (site TCGGATACTTG)”, the “recombinant barcode read abundance (log10)” value was determined as 0.456.
On to “TCGGCCTCTTGGGTTCTAACCTGTTGCTA (site CGTCTAGCTAT)”, for which the “recombinant barcode read abundance (log10)” value is 0.054.
The value for “TCGGCCTCTTGGGTTCTAACCTGTTGCTA (site TCGGCCTCTTA)” was 0.877; that for “TCGGCGACTTGGGTTCTAACCTGTTGCCT (site TCAGCGACTAG)” was 0.11; that for “TCGGCGACTTGGGTTCTAACCTGTTGCCT (site TCCGCGACTAG)” was 0.0866.
Turning to “TCGGCGACTTGGGTTCTAACCTGTTGCCT (site TCGGCGACTAG)”, the “recombinant barcode read abundance (log10)” value was found to be 0.0143.
The value for “TCGGCGACTTGGGTTCTAACCTGTTGCCT (site TCTGCGACTAG)” was 0.291; that for “TCGGGAACTTGGGTTCTAACCTGTTGCCT (site TCGCGAACTAG)” was 0.502; that for “TCGGGAACTTGGGTTCTAACCTGTTGCCT (site TCGGGAACTAG)” was 0.34.
For the sequence “TCGGGATCTTGGGTTCTAACCTGTTGCCT (site ACGGGATCTAG)”, the “recombinant barcode read abundance (log10)” value stood at 0.365.
Regarding “TCGGGATCTTGGGTTCTAACCTGTTGCCT (site CCGGGATCTAG)”, the “recombinant barcode read abundance (log10)” value turned out to be 0.184.
As to “TCGGGATCTTGGGTTCTAACCTGTTGCCT (site GCGGGATCTAG)”, the “recombinant barcode read abundance (log10)” value was determined as 0.0188.
On to “TCGGGATCTTGGGTTCTAACCTGTTGCCT (site TCGGGATCTAG)”, for which the “recombinant barcode read abundance (log10)” value stood at 1.05.
Regarding “TCGGTGACTTGGGTTCTAACCTGTTGCCT (site ACGGTGACTAG)”, the “recombinant barcode read abundance (log10)” value stood at 0.658.
The result for “TCGGTGACTTGGGTTCTAACCTGTTGCCT (site CCGGTGACTAG)” reads 0.0364; that for “TCGGTGACTTGGGTTCTAACCTGTTGCCT (site GCGGTGACTAG)”, 0.0708; that for “TCGGTGACTTGGGTTCTAACCTGTTGCCT (site TCGGTGACTAG)”, 0.87.
The result for “TCGTACCCTTGGGTTCTAACCTGTTGCGA (site TCGAACCCTTC)” reads 0.256.
The value for “TCGTACCCTTGGGTTCTAACCTGTTGCGA (site TCGCACCCTTC)” was 0.0875.
Consider “TCGTACCCTTGGGTTCTAACCTGTTGCGA (site TCGGACCCTTC)”, for which the “recombinant barcode read abundance (log10)” value stood at 0.0548.
On to “TCGTACCCTTGGGTTCTAACCTGTTGCGA (site TCGTACCCTTC)”, for which the “recombinant barcode read abundance (log10)” value amounted to 0.617.
In the case of “TCGTCTCCTTGGGTTCTAACCTGTTGCTT (site TCGTCTCCTAA)”, the “recombinant barcode read abundance (log10)” value was determined as 0.
As to “TCGTCTCCTTGGGTTCTAACCTGTTGCTT (site TTATCTCCTAA)”, the “recombinant barcode read abundance (log10)” value was 0.386.
For “TCGTGCACTTGGGTTCTAACCTGTTGCCT (site TCGTGCACTAG)”, the “recombinant barcode read abundance (log10)” value was determined as 0.215.
For “TCGTGCACTTGGGTTCTAACCTGTTGCCT (site TCGTGCCCTAG)”, the “recombinant barcode read abundance (log10)” value amounted to 0.448.
Regarding “TCGTGCACTTGGGTTCTAACCTGTTGCCT (site TCGTGCGCTAG)”, the “recombinant barcode read abundance (log10)” value turned out to be 0.0852.
The result for “TCGTGCACTTGGGTTCTAACCTGTTGCCT (site TCGTGCTCTAG)” reads 0.178; that for “TCGTGCCCTTGGGTTCTAACCTGTTGCTT (site TCGTGCCCTAA)”, 0.0384.
The value for “TCGTGCCCTTGGGTTCTAACCTGTTGCTT (site TCGTGCCCTCA)” was 1.5.
With “TCGTGCTCTTGGGTTCTAACCTGTTGCCT (site TCGTGCACTAG)”, the “recombinant barcode read abundance (log10)” value was 0.0667.
The result for “TCGTGCTCTTGGGTTCTAACCTGTTGCCT (site TCGTGCCCTAG)” reads 0.282.
In the case of “TCGTGCTCTTGGGTTCTAACCTGTTGCCT (site TCGTGCGCTAG)”, the “recombinant barcode read abundance (log10)” value turned out to be 0.193.
The value for “TCGTGCTCTTGGGTTCTAACCTGTTGCCT (site TCGTGCTCTAG)” was 0.0894; that for “TCTAACCCTTGGGTTCTAACCTGTTGCAT (site TCTAAACCTAT)” was 0.0654.
Turning to “TCTAACCCTTGGGTTCTAACCTGTTGCAT (site TCTAACCCTAT)”, the “recombinant barcode read abundance (log10)” value came to 0.251.
Consider “TCTAACCCTTGGGTTCTAACCTGTTGCAT (site TCTAAGCCTAT)”, for which the “recombinant barcode read abundance (log10)” value is 0.028.
Regarding “TCTAACCCTTGGGTTCTAACCTGTTGCAT (site TCTAATCCTAT)”, the “recombinant barcode read abundance (log10)” value was found to be 0.0655.
Turning to “TCTAATCCTTGGGTTCTAACCTGTTGCAT (site TCTAAACCTAT)”, the “recombinant barcode read abundance (log10)” value is 0.11.
“TCTAATCCTTGGGTTCTAACCTGTTGCAT (site TCTAACCCTAT)”: the “recombinant barcode read abundance (log10)” value stood at 0.0519.
Consider “TCTAATCCTTGGGTTCTAACCTGTTGCAT (site TCTAAGCCTAT)”, for which the “recombinant barcode read abundance (log10)” value stood at 0.0992.
On to “TCTAATCCTTGGGTTCTAACCTGTTGCAT (site TCTAATCCTAT)”, for which the “recombinant barcode read abundance (log10)” value worked out at 0.025.
As for “TCTAATTCTTGGGTTCTAACCTGTTGCAT (site TCTAATTCTAT)”, the “recombinant barcode read abundance (log10)” value amounted to 0.0913.
The result for “TCTAATTCTTGGGTTCTAACCTGTTGCAT (site TCTGACTCTAT)” reads 0.186.
For the sequence “TCTAATTCTTGGGTTCTAACCTGTTGCGT (site TCTAATTCTAC)”, the “recombinant barcode read abundance (log10)” value came out at 0.095.
With “TCTAATTCTTGGGTTCTAACCTGTTGCGT (site TCTCATTCTAC)”, the “recombinant barcode read abundance (log10)” value is 0.162.
On to “TCTAATTCTTGGGTTCTAACCTGTTGCGT (site TCTGATTCTAC)”, for which the “recombinant barcode read abundance (log10)” value amounted to 0.899.
With “TCTAATTCTTGGGTTCTAACCTGTTGCGT (site TCTTATTCTAC)”, the “recombinant barcode read abundance (log10)” value turned out to be 0.047.
For “TCTAGAGCTTGGGTTCTAACCTGTTGCCT (site TCTAGAACTAG)”, the “recombinant barcode read abundance (log10)” value was found to be 0.0712.
With “TCTAGAGCTTGGGTTCTAACCTGTTGCCT (site TCTAGACCTAG)”, the “recombinant barcode read abundance (log10)” value was determined as 0.228.
